Assay results reported in the kinase profiling compilation of Christmann-Franck et al. (2016).

Columns and labels:
Settings in all cases: compound 10.0 µM
PAK2 (human) = PAK2 (human) (UniProt Q13177)
RPS6KB1 (human) = RPS6KB1 (human) (UniProt P23443)
[1] = biological target: CAMK2A or CAMK2B or CAMK2D or CAMK2G (human) (UniProt Q13555+Q13557+Q9UQM7+Q13554)
INSR (human) = INSR (human) (UniProt P06213)
CHEK1 (human) = CHEK1 (human) (UniProt O14757)
CAMK4 (human) = CAMK4 (human) (UniProt Q16566)
IGF1R (human) = IGF1R (human) (UniProt P08069)
IGF1R (human), sequence (P08069 whole entry, looked up): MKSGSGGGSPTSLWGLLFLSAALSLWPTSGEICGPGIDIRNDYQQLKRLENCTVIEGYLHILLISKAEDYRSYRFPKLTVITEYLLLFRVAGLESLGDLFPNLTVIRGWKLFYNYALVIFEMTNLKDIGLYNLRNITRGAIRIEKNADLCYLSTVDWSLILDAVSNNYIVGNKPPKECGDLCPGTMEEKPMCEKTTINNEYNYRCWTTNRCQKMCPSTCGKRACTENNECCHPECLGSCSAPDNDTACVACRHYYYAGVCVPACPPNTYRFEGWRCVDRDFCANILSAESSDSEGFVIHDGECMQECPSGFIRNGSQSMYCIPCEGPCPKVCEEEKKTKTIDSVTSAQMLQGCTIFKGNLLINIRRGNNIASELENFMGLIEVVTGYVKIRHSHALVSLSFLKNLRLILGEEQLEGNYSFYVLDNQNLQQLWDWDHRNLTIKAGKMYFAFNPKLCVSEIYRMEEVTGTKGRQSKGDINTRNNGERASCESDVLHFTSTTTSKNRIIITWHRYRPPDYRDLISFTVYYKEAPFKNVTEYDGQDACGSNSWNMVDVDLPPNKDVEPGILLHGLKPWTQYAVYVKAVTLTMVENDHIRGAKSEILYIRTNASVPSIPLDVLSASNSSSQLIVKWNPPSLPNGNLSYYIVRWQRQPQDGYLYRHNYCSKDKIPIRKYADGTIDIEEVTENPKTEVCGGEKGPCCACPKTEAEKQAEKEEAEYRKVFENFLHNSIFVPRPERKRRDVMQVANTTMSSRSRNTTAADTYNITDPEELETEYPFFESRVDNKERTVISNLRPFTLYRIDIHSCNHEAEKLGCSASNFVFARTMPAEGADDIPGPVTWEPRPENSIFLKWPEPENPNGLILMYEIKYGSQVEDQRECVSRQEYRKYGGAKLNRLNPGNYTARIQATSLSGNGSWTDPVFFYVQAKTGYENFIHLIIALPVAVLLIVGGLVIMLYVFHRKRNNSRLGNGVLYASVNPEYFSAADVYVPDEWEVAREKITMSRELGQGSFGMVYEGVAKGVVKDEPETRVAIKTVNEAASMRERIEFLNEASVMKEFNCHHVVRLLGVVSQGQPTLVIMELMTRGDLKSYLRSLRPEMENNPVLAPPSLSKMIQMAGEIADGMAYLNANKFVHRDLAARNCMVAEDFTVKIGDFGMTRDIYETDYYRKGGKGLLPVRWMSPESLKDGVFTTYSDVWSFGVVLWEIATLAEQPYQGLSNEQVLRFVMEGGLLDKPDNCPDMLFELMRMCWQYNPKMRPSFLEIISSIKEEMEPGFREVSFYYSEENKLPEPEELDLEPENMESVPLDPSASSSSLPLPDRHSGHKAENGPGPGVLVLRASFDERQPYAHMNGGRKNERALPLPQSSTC

MAP3K7 (human) = MAP3K7 (human) (UniProt O43318)
MAP3K7 (human), sequence (O43318 whole entry, looked up): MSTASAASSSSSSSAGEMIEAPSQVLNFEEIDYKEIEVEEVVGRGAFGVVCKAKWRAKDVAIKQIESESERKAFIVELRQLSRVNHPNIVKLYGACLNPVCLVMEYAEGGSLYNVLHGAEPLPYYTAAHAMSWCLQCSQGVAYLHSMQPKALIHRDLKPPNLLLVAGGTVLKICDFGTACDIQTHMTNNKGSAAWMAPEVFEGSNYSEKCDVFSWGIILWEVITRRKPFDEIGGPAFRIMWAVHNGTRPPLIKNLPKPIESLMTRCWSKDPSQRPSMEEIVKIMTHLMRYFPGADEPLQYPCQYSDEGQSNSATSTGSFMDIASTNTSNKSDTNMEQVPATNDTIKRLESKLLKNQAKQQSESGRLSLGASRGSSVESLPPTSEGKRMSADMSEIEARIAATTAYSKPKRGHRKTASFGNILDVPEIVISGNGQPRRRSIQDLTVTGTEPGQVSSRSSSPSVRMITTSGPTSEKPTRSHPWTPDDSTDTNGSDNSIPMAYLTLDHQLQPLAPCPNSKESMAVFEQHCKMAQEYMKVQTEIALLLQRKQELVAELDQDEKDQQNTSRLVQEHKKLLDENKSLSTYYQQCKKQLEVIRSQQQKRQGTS

PIM2 (human) = PIM2 (human) (UniProt Q9P1W9)
PIM2 (human), sequence (Q9P1W9 whole entry, looked up): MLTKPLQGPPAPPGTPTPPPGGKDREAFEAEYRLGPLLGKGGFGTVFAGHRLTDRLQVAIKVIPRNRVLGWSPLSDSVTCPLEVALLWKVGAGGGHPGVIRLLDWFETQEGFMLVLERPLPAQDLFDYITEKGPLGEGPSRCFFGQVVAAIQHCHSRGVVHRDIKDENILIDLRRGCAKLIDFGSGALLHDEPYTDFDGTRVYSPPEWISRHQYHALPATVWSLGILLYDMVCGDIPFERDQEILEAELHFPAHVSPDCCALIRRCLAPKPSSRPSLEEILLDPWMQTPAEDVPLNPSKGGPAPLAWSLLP

SGK1 (human) = SGK1 (human) (UniProt O00141)
AKT1 (human) = AKT1 (human) (UniProt P31749)
ABL1 (human) = ABL1 (human) (UniProt P00519)
DYRK1A (human) = DYRK1A (human) (UniProt Q13627)
MARK1 (human) = MARK1 (human) (UniProt Q9P0L2)
KDR (human) = KDR (human) (UniProt P35968)
MAP4K4 (human) = MAP4K4 (human) (UniProt O95819)
MET (human) = MET (human) (UniProt P08581)
FGFR1 (human) = FGFR1 (human) (UniProt P11362)
PRKG1 (human) = PRKG1 (human) (UniProt Q13976)
MAPKAPK5 (human) = MAPKAPK5 (human) (UniProt Q8IW41)

RPS6KB1 (human), sequence (P23443 whole entry, looked up): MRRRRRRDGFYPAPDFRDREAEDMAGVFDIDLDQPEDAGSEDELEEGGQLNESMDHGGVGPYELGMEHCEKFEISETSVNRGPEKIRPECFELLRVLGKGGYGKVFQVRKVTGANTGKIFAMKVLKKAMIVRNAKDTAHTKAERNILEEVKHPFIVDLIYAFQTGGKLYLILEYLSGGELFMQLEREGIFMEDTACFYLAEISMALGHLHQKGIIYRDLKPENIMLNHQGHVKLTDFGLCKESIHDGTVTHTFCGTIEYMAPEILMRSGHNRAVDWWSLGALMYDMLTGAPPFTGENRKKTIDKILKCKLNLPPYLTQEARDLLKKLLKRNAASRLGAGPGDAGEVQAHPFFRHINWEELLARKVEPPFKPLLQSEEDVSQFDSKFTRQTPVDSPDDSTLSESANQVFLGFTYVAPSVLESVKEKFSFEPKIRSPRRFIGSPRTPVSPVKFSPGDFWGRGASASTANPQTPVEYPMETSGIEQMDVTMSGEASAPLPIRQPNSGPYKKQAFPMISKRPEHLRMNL
CAMK2A or CAMK2B or CAMK2D or CAMK2G (human), sequence (Q13554 whole entry, looked up): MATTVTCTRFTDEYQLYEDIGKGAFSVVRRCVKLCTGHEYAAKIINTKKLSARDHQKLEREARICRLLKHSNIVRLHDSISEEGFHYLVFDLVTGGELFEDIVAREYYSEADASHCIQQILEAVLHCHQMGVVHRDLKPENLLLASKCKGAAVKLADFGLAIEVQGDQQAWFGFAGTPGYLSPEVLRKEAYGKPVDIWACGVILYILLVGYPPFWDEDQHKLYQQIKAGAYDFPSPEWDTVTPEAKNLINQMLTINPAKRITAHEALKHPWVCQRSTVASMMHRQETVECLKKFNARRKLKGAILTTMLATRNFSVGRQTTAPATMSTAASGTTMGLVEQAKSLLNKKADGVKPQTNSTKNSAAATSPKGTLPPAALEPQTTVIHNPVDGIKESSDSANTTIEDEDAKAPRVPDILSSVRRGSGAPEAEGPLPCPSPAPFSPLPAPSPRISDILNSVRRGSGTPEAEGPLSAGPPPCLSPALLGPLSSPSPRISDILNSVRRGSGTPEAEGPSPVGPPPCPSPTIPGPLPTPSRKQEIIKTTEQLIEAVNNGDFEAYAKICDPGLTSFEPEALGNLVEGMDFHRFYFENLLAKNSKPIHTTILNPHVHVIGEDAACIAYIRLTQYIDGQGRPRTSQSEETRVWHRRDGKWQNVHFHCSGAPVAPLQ
CAMK2A or CAMK2B or CAMK2D or CAMK2G (human), sequence (Q13555 whole entry, looked up): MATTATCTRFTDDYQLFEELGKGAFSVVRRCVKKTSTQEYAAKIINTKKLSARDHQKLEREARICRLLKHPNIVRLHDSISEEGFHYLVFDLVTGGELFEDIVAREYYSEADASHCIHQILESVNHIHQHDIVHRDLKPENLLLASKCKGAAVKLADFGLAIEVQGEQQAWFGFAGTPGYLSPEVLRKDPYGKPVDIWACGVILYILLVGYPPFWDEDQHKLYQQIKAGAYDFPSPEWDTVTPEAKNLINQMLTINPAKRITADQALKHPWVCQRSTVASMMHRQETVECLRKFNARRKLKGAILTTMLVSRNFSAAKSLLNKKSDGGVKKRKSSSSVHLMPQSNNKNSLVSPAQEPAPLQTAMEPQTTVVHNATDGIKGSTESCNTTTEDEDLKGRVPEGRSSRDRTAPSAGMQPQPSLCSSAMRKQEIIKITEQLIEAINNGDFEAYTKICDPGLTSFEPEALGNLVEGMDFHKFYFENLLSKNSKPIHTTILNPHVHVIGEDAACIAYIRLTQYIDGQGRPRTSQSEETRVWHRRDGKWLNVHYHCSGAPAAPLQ
CAMK2A or CAMK2B or CAMK2D or CAMK2G (human), sequence (Q13557 whole entry, looked up): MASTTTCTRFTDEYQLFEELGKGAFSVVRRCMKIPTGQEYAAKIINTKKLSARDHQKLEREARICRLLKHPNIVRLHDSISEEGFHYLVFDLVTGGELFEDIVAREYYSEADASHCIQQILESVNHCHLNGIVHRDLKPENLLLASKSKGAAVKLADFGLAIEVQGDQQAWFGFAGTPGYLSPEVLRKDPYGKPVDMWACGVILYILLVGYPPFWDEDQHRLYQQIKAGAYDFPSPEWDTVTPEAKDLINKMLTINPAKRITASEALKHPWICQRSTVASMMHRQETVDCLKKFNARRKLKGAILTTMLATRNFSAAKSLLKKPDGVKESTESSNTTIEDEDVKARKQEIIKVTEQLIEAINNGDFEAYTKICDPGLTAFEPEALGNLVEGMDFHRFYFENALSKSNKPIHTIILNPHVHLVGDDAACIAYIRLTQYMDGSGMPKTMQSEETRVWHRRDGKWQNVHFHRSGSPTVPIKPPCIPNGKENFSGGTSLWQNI
CAMK2A or CAMK2B or CAMK2D or CAMK2G (human), sequence (Q9UQM7 whole entry, looked up): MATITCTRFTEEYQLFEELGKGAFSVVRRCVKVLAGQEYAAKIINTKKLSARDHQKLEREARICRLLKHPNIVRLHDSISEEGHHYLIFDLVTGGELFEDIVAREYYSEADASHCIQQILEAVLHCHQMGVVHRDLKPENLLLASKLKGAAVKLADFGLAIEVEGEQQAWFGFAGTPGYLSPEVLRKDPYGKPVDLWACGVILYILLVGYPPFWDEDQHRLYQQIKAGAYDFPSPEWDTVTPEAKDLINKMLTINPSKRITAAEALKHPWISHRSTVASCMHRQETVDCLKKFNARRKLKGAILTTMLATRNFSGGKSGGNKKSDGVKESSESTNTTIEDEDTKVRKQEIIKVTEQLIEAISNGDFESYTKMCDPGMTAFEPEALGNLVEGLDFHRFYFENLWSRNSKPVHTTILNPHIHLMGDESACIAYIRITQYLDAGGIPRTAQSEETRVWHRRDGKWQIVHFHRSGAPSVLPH

Compound | inhibition (RPS6KB1 (human)) [%] | inhibition [1] [%] | inhibition (CAMK4 (human)) [%] | inhibition (IGF1R (human)) [%] | inhibition (MAP3K7 (human)) [%] | inhibition (PIM2 (human)) [%] | inhibition (PRKG1 (human)) [%] | other results
CC[C@@H](NC(=O)c1c[nH]c2ncc(-c3nn(C)c4cc(Cl)ccc34)nc12)C(=O)N1CC(C#N)C1 | -12 | -35 | – | – | – | – | – | inhibition (PAK2 (human)): -29%; inhibition (INSR (human)): -11%
C[C@@H](NC(=O)c1c[nH]c2ncc(-c3nn(C)c4cc(Cl)cc(F)c34)nc12)C(=O)N1CC(C#N)C1 | -33 | -52 | -24 | -30 | -11 | – | – | inhibition (CHEK1 (human)): -28%
C[C@@H](NC(=O)c1c[nH]c2ncc(-c3cn(C)c4cc(Cl)ccc34)nc12)C(=O)N1CC(C#N)C1 | -14 | -53 | – | – | – | -18 | – | –
C[C@@H](NC(=O)c1c[nH]c2ncc(-c3nn(C)c4cc(Cl)ccc34)nc12)C(=O)N1CC(C#N)C1 | -12 | -179 | -11 | -12 | -24 | -15 | 0 | inhibition (SGK1 (human)): -17%; inhibition (AKT1 (human)): -11%; inhibition (ABL1 (human)): -13%; inhibition (DYRK1A (human)): -13%; inhibition (MARK1 (human)): -11%; inhibition (KDR (human)): -18%; inhibition (MAP4K4 (human)): -17%; inhibition (MET (human)): -15%; inhibition (FGFR1 (human)): -11%
C[C@@H](NC(=O)c1c[nH]c2ncc(-c3ncn4cc(F)cc(F)c34)nc12)C(=O)N1CC(C#N)C1 | -42 | -51 | – | – | – | – | 0 | inhibition (MAPKAPK5 (human)): -12%
